Laboratory results published in patent US7084158B2, “Substituted propargylamines” (Bayer Cropscience S.A., priority 2001, dated 2006).

Columns and labels:
Format in all cases: in vivo
Parameters in all cases: key: compounds were considered to be active when, at a concentration of 500 ppm or less, they had an activity on the harmful organisms of 50% or more
Heliothis virescens = assay: Example B: tobacco budworm eggs on filter paper/insect diet, mortality; conditions: 500 ppm or less; 24-hour-old eggs dipped, diet treated; after 6 days
[1] = system: Diabrotica undecimpunctata; assay: Example C: corn rootworm eggs with maize corn, mortality; conditions: 500 ppm or less; 4-5-day-old eggs; after 6 days
Spodoptera exigua = assay: Example S: treated L2 larvae and insect diet, sugar beet army worm mortality; conditions: 500 ppm or less, after 6 days
Experimental: A Petri dish whose bottom was covered with filter paper and which contains about 5 ml of insect diet is prepared. Five L2 larvae of sugar beet army worm (Spodoptera exigua) were counted into a small beaker. 200 μl of an aqueous solution of the formulated compound to be examined were pipetted into the beaker. The treated larvae were then poured into the Petri dish and a further 200 μl of the aqueous solution were distributed over the insect diet. The Petri dish was closed and then stored at 25° C. in a climatized chamber. After 6 days of storage, the mortality among the larvae was determined. The following examples were active: 1036, 175, 184, 1051, 1054, 1055, 234, 1057, 1059, 1060, 1063, 243, 245, 251, 257, 259, 266, 1065, 1067, 290, 291.

Aedes aegypti = assay: Example AG: microtiter plate, yellow fever mosquito larvicidal activity; conditions: 500 ppm or less, after 3 days
Meloidogyne incognita = assay: Example H: root gall nematode larvae immobilization (contact activity); conditions: 500 ppm or less; 2nd stage larvae; 6 days permanent exposure
Experimental: In a glass vessel, an aqueous solution of the formulated compound to be examined was added to about 3000 freshly hatched active (mobile) larvae (2nd development stage) of the root gall nematode (Meloidogyne incognita) (final volume 20 ml). After 6 days of permanent exposure of the nematode larvae, the percentage of the individual larvae immobilized by the activity of the compound was determined in comparison to the untreated controls (contact activity). The compounds of the following examples were active: 39, 52, 159, 161, 162, 163, 164, 165, 1045, 1046, 1047, 179, 183, 187, 1048, 298, 206, 208, 227, 230, 1061, 237, 238, 245, 250, 255, 256, 260, 268, 269, 274, 275, 288, 290.

Nilaparvata lugens = assay: Example A: rice leaf dip, leafhopper larvae mortality; conditions: 500 ppm or less; L3 larvae on dipped rice plants; after 6 days
Experimental: The leaves of 12 rice plants having a stem length of 8 cm were dipped for 5 seconds into an aqueous solution of the formulated compound to be examined. After the solution had run off, the rice plants treated in this manner were placed into a Petri dish and populated with about 20 larvae (L3 stage) of the rice leafhopper species Nilaparvata lugens. The Petri dish was closed and then stored in a climatized chamber (16 hours of light/day, 25° C., 40–60% relative atmospheric humidity). After 6 days of storage, the mortality among the leafhopper larvae was determined. The compounds of the following examples were active: Nos. 29, 32, 42, 43, 51, 70, 84, 1002, 1004, 1005, 1040, 180, 184, 193, 197, 203, 209, 1059, 264, 265, 1066.

Spodoptera littoralis [2] = assay: Example G: treated L2 larvae and insect diet, Egyptian cotton leafworm mortality; conditions: 500 ppm or less, after 6 days
Experimental: A Petri dish whose bottom was covered with filter paper and which contained about 5 ml of insect diet is prepared. Five L2 larvae of the Egyptian cotton leafworm (Spodoptera littoralis) were counted into a small beaker. 200 μl of an aqueous solution of the formulated preparation to be examined were pipetted into the beaker. The treated larvae were then poured into the Petri dish, and a further 200 μl of the aqueous solution were distributed over the insect diet. The Petri dish was closed and then stored at about 25° C. in a climatized chamber. After 6 days of storage, the effect of the compound on the larvae was determined (mortality). The compounds of the following examples were active: 29, 70, 60, 159, 1005, 1040, 1042, 1044, 1045, 1046, 1047.

[3] = system: Trialeurodes vaporariorum; assay: Example AD: bush beans sprayed, white fly larvicidal action; conditions: 500 ppm or less; bush beans sprayed after hatching; after 11 days
Experimental: For oviposition, bush beans (Phaseolus vulgaris) were populated for 48 hours with adults of the white fly (Trialeurodes vaporariorum). After the larvae had hatched, the plants were sprayed to run-off point with an aqueous solution of the formulated compound to be examined. After 11 days, the larvicidal action was determined. The following examples were active: 1036, 70, 60, 1040, 197.

Aphis fabae = assay: Example F: field bean dip, black bean aphid mortality; conditions: 500 ppm or less; plants and aphids dipped; after 3 and 6 days
Experimental: Germinated field bean seeds (Vicia faba) with radicles were transferred into brown glass bottles filled with tap water and subsequently populated with approximately 100 black bean aphids (Aphis fabae). Plants and aphids were then dipped for 5 seconds into an aqueous solution of the formulated compound to be examined. After the solution had run off, plants and animals were stored in a climatized chamber (16 hours of light/day, 25° C., 40–60% relative atmospheric humidity). After 3 and 6 days of storage, the effect of the compound on the aphids was determined (mortality). The compounds of the following examples were active: 30, 43, 228, 262, 291.

Carpocapsa pomonella = assay: Example D: dipped apples, codling moth L1 larvae mortality; conditions: 500 ppm or less, after 14 days
Experimental: Apples were dipped into an aqueous solution of the formulated compound to be examined. The apples were then populated with 10 L1 larvae of the codling moth (Carpocapsa pomonella). After 14 days of storage at about 25° C., the effect of the compound on the larvae was determined (mortality). The compounds of the following examples were active: Nos. 14, 15, 17, 18, 70, 1007, 1008, 1009, 1036, 1038, 197.

Spodoptera littoralis [4] = assay: Example E: cotton leaves sprayed, Egyptian cotton leafworm L2 larvae mortality; conditions: 500 ppm or less, after 4 days
Experimental: Leaves of cotton plants were placed into a Petri dish, populated with 10 L2 larvae of the Egyptian cotton leafworm (Spodoptera littoralis) and sprayed with an aqueous solution of the formulated compound to be examined. After 4 days of storage at about 23° C., the effect of the compound on the larvae was determined (mortality). The compounds of the following examples were active: Nos. 18, 70, 1007, 1008, 1009, 1036 und 1038.

[5] = system: Diabrotica undecimpunctata; assay: Example AC: treated soil, southern corn rootworm eggs mortality; conditions: 500 ppm or less, eggs added after 0d, 21d and 42d, after 2 weeks
Experimental: An aqueous solution of the formulated compound to be examined was mixed with soil. After 0d, 21d and 42d, eggs of the southern corn rootworm (Diabrotica undecimpunctata) were placed together with 2 pre-swollen maize corns into a dish, covered with the treated soil and moisted with 10 ml of water. Soil and eggs were placed in a greenhouse (23° C., 60% relative atmosphere humidity). After 2 weeks of storage, the effect of the compound on the eggs and any larvae hatched therefrom was determined (mortality). The following examples were active: 70, 60, 197, 204.

CC1CCN(CC#Cc2cc(C(F)(F)F)cc(C(F)(F)F)n2)CC1.CCS(=O)(=O)O [Example 1060]
active: effect on the eggs and hatched larvae (mortality) (Heliothis virescens) | effect on the eggs and hatched larvae (mortality) [1] | mortality among the larvae (Spodoptera exigua) | larvicidal activity (Aedes aegypti)

CC1CCN(CC#Cc2ccc(-c3ccccc3Cl)s2)CC1 [Example 243]
active: mortality among the larvae (Spodoptera exigua)

Cc1cc(C)cc(-c2ccc(C#CCN3CCC(C)CC3)cc2)c1 [Example 175]
active: effect on the eggs and hatched larvae (mortality) (Heliothis virescens) | mortality among the larvae (Spodoptera exigua)

CC1CCN(CC#Cc2ccc(-c3ccc(Cl)cc3)s2)CC1 [Example 245]
active: effect on the eggs and hatched larvae (mortality) (Heliothis virescens) | percentage of larvae immobilized (contact activity) (Meloidogyne incognita) | mortality among the larvae (Spodoptera exigua) | larvicidal activity (Aedes aegypti)

CC1CCN(CC#Cc2ccc(C(F)(F)F)c(Cl)c2)CC1.CCCCCCCCC(=O)O [Example 1040]
active: mortality among the leafhopper larvae (Nilaparvata lugens) | effect on the eggs and hatched larvae (mortality) (Heliothis virescens) | effect on the eggs and hatched larvae (mortality) [1] | effect on the larvae (mortality) (Spodoptera littoralis [2]) | larvicidal action [3]

CC1CCN(CC#Cc2cc(C(F)(F)F)ccc2Cl)CC1 [Example 30]
active: effect on the eggs and hatched larvae (mortality) (Heliothis virescens) | effect on the aphids (mortality) (Aphis fabae)

CCC1CCCN(CC#Cc2ccc(Cl)c(C(F)(F)F)c2)C1 (stereo not drawn) [Example 18]
active: effect on the eggs and hatched larvae (mortality) (Heliothis virescens) | effect on the eggs and hatched larvae (mortality) [1] | effect on the larvae (mortality) (Carpocapsa pomonella) | effect on the larvae (mortality) (Spodoptera littoralis [4])

CC1CCN(CC#Cc2cc(C(F)(F)F)cc(Cl)n2)CC1 [Example 234]
active: effect on the eggs and hatched larvae (mortality) (Heliothis virescens) | effect on the eggs and hatched larvae (mortality) [1] | mortality among the larvae (Spodoptera exigua) | larvicidal activity (Aedes aegypti)

C[C@@H]1C[C@H](C)CN(CC#Cc2cc(C(F)(F)F)cc(C(F)(F)F)c2)C1 [Example 43]
active: mortality among the leafhopper larvae (Nilaparvata lugens) | effect on the eggs and hatched larvae (mortality) [1] | effect on the aphids (mortality) (Aphis fabae)

CC1CCN(CC#Cc2ccc(C(F)(F)F)c(Cl)c2)CC1.O=C(O)/C=C/C(=O)O [Example 1008]
active: effect on the larvae (mortality) (Carpocapsa pomonella) | effect on the larvae (mortality) (Spodoptera littoralis [4])

CC1CCN(CC#Cc2ccc(C#N)c(C(F)(F)F)c2)CC1 [Example 290]
active: effect on the eggs and hatched larvae (mortality) (Heliothis virescens) | effect on the eggs and hatched larvae (mortality) [1] | percentage of larvae immobilized (contact activity) (Meloidogyne incognita) | mortality among the larvae (Spodoptera exigua) | larvicidal activity (Aedes aegypti)

FC(F)(F)c1cc(C#CCN2CCC(C(F)(F)F)CC2)nc(C(F)(F)F)c1 [Example 204]
active: effect on the eggs and hatched larvae (mortality) (Heliothis virescens) | effect on the eggs and hatched larvae (mortality) [1] | effect on the eggs and hatched larvae (mortality) [5]

CC1CCN(CC#Cc2cc([N+](=O)[O-])cc(C(F)(F)F)c2)CC1.Cl [Example 1038]
active: effect on the eggs and hatched larvae (mortality) (Heliothis virescens) | effect on the eggs and hatched larvae (mortality) [1] | effect on the larvae (mortality) (Carpocapsa pomonella) | effect on the larvae (mortality) (Spodoptera littoralis [4])

CC1CCN(CC#Cc2ccc(-c3ccc(F)cc3)c(F)c2)CC1 [Example 228]
active: effect on the eggs and hatched larvae (mortality) [1] | effect on the aphids (mortality) (Aphis fabae)
